According to patent US7148249B2, “Indolinones substituted by heterocycles, the preparation thereof and their use as medicaments” (Boehringer Ingelheim Pharma GmbH & Co. KG, priority 2002, dated 2006):
pIC50: −log10 of the molar value.

Experiments:
[1] = system: Human umbilical endothelial cells (HUVEC); test: Inhibition of VEGF165-stimulated HUVEC proliferation (3H-thymidine incorporation); type: cell-based; conditions: Homo sapiens; HUVEC proliferation stimulated with 5 ng/ml VEGF165 and 10 μg/ml heparin; 76 h incubation + 16 h 3H-thymidine
Experimental: Human umbilical endothelial cells (HUVEC) were cultivated in IMDM (Gibco BRL), supplemented with 10% foetal calf serum (FBS) (Sigma), 50 μM of β-mercaptoethanol (Fluka), standard antibiotics, 15 μg/ml of endothelial cell growth factor (ECGS, Collaborative Biomedical Products) and 100 μg/ml of heparin (Sigma) on gelatine-coated culture dishes (0.2% gelatine, Sigma) at 37° C., under 5% CO2 in a water-saturated atmosphere.
In order to investigate the inhibitory activity of the compounds according to the invention the cells were “starved” for 16 hours, i.e. kept in culture medium without growth factors (ECGS+heparin). The cells were detached from the culture dishes using trypsin/EDTA and washed once in serum-containing medium. Then they were seeded out in amounts of 2.5×10^3 cells per well.
The proliferation of the cells was stimulated with 5 ng/ml of VEGF165 (vascular endothelial growth factor; H. Weich, GBF Braunschweig) and 10 μg/ml of heparin. As a control, 6 wells in each dish were not stimulated.
The compounds according to the invention were dissolved in 100% dimethylsulphoxide and added to the cultures in various dilutions as triple measurements, the maximum dimethylsulphoxide concentration being 0.3%.
The cells were incubated for 76 hours at 37° C., then for a further 16 hours ^3H-thymidine (0.1 μCi/well, Amersham) was added in order to determine the DNA synthesis. Then the radioactively labelled cells were immobilised on filter mats and the radioactivity incorporated was measured in a β-counter. In order to determine the inhibitory activity of the compounds according to the invention the mean value of the non-stimulated cells was subtracted from the mean value of the factor-stimulated cells (in the presence or absence of the compounds according to the invention).
The relative cell proliferation was calculated as a percentage of the control (HUVEC without inhibitor) and the concentration of active substance which inhibits the proliferation of the cells by 50% (IC50) was determined.

melting point	Structure (SMILES)	pIC50 [1]
271 to 273 °C	COC(=O)c1ccc2c(c1)NC(=O)/C2=C(\Nc1ccc(CN2CCN(C)CC2)cc1)c1ccc2c(c1)OCCO2 [(v), 3-(Z)-{1-(4-[4-methylpiperazin-1-yl-methyl]-phenylamino)-1-(3,4-ethylenedioxy-phenyl)-methylene}-6-methoxycarbonyl-2-indolinone]	9.00
266 °C	CCNCc1ccc(N/C(=C2\C(=O)Nc3cc(C(=O)OC)ccc32)c2ccc3c(c2)OCCO3)cc1 [(u), 3-(Z)-{1-(4-[ethylamino-methyl]-phenylamino)-1-(3,4-ethylenedioxyphenyl)-methylene}-6-methoxycarbonyl-2-indolinone]	9.10
295 to 297 °C (dec.)	Cc1nc2ccc(/C(Nc3ccc(CN4CCCC4)cc3)=C3/C(=O)Nc4cc(Cl)ccc43)cc2[nH]1 [(ay), 3-(Z)-{1-[4-(pyrrolidin-1-yl-methyl)-phenylamino]-1-(2-methyl-benzimidazol-5-yl)-methylene}-6-chloro-2-indolinone]	7.72
153 to 154 °C	CCNCc1ccc(N/C(=C2\C(=O)Nc3cc(F)ccc32)c2ccc3c(c2)OCCO3)cc1 [(l), 3-(Z)-{1-[4-(ethylaminomethyl)-phenylamino]-1-(3,4-ethylenedioxyphenyl)-methylene}-6-fluoro-2-indolinone]	8.00
221 to 222 °C	CN(C)CC(=O)N(C)c1ccc(N/C(=C2\C(=O)Nc3ccccc32)c2ccc3c(c2)OCO3)cc1 [(aj), 3-(Z)-{1-(4-[N-methyl-N-(dimethylaminomethylcarbonyl)-amino]-phenylamino)-1-(3,4-methylenedioxyphenyl)-methylene}-2-indolinone]	7.89
277 to 279 °C	O=C1Nc2cc(Cl)ccc2/C1=C(/Nc1ccc(CN2CCCC2)cc1)c1ccc2nc[nH]c2c1 [(ai), 3-(Z)-{1-[4-(pyrrolidin-1-yl-methyl)-phenylamino]-1-(benzimidazol-5-yl)-methylene}-6-chloro-2-indolinone]	8.52
273 to 277 °C (dec.)	CN(C)Cc1ccc(N/C(=C2\C(=O)Nc3ccccc32)c2ccc3nc[nH]c3c2)cc1 [(ag), 3-(Z)-{1-[4-(dimethylaminomethyl)-phenylamino]-1-(benzimidazol-5-yl)-methylene}-2-indolinone]	7.51
228 to 232 °C	CCCS(=O)(=O)N(CCN(C)C)c1ccc(N/C(=C2\C(=O)Nc3cc(Cl)ccc32)c2ccncc2)cc1 [(ax), 3-(Z)-{1-(4-[N-(propanesulphonyl)-N-(2-dimethylaminoethyl)-amino]-phenylamino)-1-(4-pyridyl)-methylene}-6-chloro-2-indolinone]	7.43
255 to 260 °C	CN1CCC(N/C(=C2\C(=O)Nc3ccccc32)c2ccoc2)CC1 [Example 6.0, 3-(Z)-[1-(1-methylpiperidin-4-ylamino)-1-(3-furyl)-methylene]-2-indolinone]	
270 °C	CN(C)CC(=O)N(C)c1ccc(N/C(=C2\C(=O)Nc3cc(Cl)ccc32)c2ccc3c(c2)ncn3C)cc1 [(ak), 3-(Z)-{1-(4-[N-methyl-N-(dimethylaminomethylcarbonyl)-amino]-phenylamino)-1-(1-methyl-benzimidazol-5-yl)-methylene}-6-chloro-2-indolinone]	7.52
288 °C (dec.)	CN(C)Cc1ccc(N/C(=C2\C(=O)Nc3cc(Cl)ccc32)c2ccc3c(c2)ncn3C)cc1 [(f), 3-(Z)-{1-[4-(dimethylaminomethyl)-phenylamino]-1-(1-methyl-benzimidazol-5-yl)-methylene}-6-chloro-2-indolinone]	8.70
